Experimental data from ChEMBL document CHEMBL4665624, “Synthesis of 5-(4-(1H-phenanthro[9,10-d]imidazol-2-yl)benzylidene)thiazolidine-2,4-dione as promising DNA and serum albumin-binding agents and evaluation of antitumor activity” (Eur J Med Chem, 2019).

Experiments:
[1] = tested on: SK-MEL-28; experiment: Antitumor activity against human SK-MEL-28 cells assessed as cell growth inhibition at 10 uM incubated for 48 hrs by sulforhodamine B assay; assay type: functional; conditions: read-out: GI
[2] = tested on: RXF 393; experiment: Antitumor activity against human RXF 393 cells assessed as cell growth inhibition at 10 uM incubated for 48 hrs by sulforhodamine B assay; assay type: functional; conditions: read-out: GI
[3] = tested on: IGROV-1; experiment: Antitumor activity against human IGROV1 cells assessed as cell growth inhibition at 10 uM incubated for 48 hrs by sulforhodamine B assay; assay type: functional; conditions: read-out: GI
[4] = tested on: ACHN; experiment: Antitumor activity against human ACHN cells assessed as cell growth inhibition at 10 uM incubated for 48 hrs by sulforhodamine B assay; assay type: functional; conditions: read-out: GI
[5] = tested on: RPMI-8226; experiment: Antitumor activity against human RPMI8226 cells assessed as cell growth inhibition at 10 uM incubated for 48 hrs by sulforhodamine B assay; assay type: functional; conditions: read-out: GI
[6] = tested on: MOLT-4; experiment: Antitumor activity against human MOLT4 cells assessed as cell growth inhibition at 10 uM incubated for 48 hrs by sulforhodamine B assay; assay type: functional; conditions: read-out: GI
[7] = tested on: NCI/ADR-RES; experiment: Antitumor activity against human NCI/ADR-RES cells assessed as cell growth inhibition at 10 uM incubated for 48 hrs by sulforhodamine B assay; assay type: functional; conditions: read-out: GI
[8] = tested on: NCI-H23; experiment: Antitumor activity against human NCI-H23 cells assessed as cell growth inhibition at 10 uM incubated for 48 hrs by sulforhodamine B assay; assay type: functional; conditions: read-out: GI
[9] = tested on: SK-OV-3; experiment: Antitumor activity against human SK-OV-3 cells assessed as cell growth inhibition at 10 uM incubated for 48 hrs by sulforhodamine B assay; assay type: functional; conditions: read-out: GI
[10] = tested on: OVCAR-3; experiment: Antitumor activity against human OVCAR-3 cells assessed as cell growth inhibition at 10 uM incubated for 48 hrs by sulforhodamine B assay; assay type: functional; conditions: read-out: GI
[11] = tested on: HCT-15; experiment: Antitumor activity against human HCT15 cells assessed as cell growth inhibition at 10 uM incubated for 48 hrs by sulforhodamine B assay; assay type: functional; conditions: read-out: GI
[12] = tested on: HT-29; experiment: Antitumor activity against human HT-29 cells assessed as cell growth inhibition at 10 uM incubated for 48 hrs by sulforhodamine B assay; assay type: functional; conditions: read-out: GI
[13] = tested on: NCI-H226; experiment: Antitumor activity against human NCI-H226 assessed as cell growth inhibition at 10 uM incubated for 48 hrs by sulforhodamine B assay; assay type: functional; conditions: read-out: GI
[14] = tested on: U-251; experiment: Antitumor activity against human U251 cells assessed as cell growth inhibition at 10 uM incubated for 48 hrs by sulforhodamine B assay; assay type: functional; conditions: read-out: GI
[15] = tested on: SNB-19; experiment: Antitumor activity against human SNB-19 cells assessed as cell growth inhibition at 10 uM incubated for 48 hrs by sulforhodamine B assay; assay type: functional; conditions: read-out: GI
[16] = tested on: EKVX; experiment: Antitumor activity against human EKVX cells assessed as cell growth inhibition at 10 uM incubated for 48 hrs by sulforhodamine B assay; assay type: functional; conditions: read-out: GI
[17] = tested on: LOX IMVI; experiment: Antitumor activity against human LOX IMVI cells assessed as cell growth inhibition at 10 uM incubated for 48 hrs by sulforhodamine B assay; assay type: functional; conditions: read-out: GI
[18] = tested on: CCRF-CEM; experiment: Antitumor activity against human CCRF-CEM cells assessed as cell growth inhibition at 10 uM incubated for 48 hrs by sulforhodamine B assay; assay type: functional; conditions: read-out: GI
[19] = tested on: SN12C; experiment: Antitumor activity against human SN12C cells assessed as cell growth inhibition at 10 uM incubated for 48 hrs by sulforhodamine B assay; assay type: functional; conditions: read-out: GI
[20] = tested on: BT-549; experiment: Antitumor activity against human BT-549 cells assessed as cell growth inhibition at 10 uM incubated for 48 hrs by sulforhodamine B assay; assay type: functional; conditions: read-out: GI
[21] = tested on: UACC-62; experiment: Antitumor activity against human UACC-62 cells assessed as cell growth inhibition at 10 uM incubated for 48 hrs by sulforhodamine B assay; assay type: functional; conditions: read-out: GI
[22] = tested on: SNB-75; experiment: Antitumor activity against human SNB-75 cells assessed as cell growth inhibition at 10 uM incubated for 48 hrs by sulforhodamine B assay; assay type: functional; conditions: read-out: GI
[23] = tested on: NCI-H460; experiment: Antitumor activity against human NCI-H460 assessed as cell growth inhibition at 10 uM incubated for 48 hrs by sulforhodamine B assay; assay type: functional; conditions: read-out: GI
[24] = tested on: M14; experiment: Antitumor activity against human M14 cells assessed as cell growth inhibition at 10 uM incubated for 48 hrs by sulforhodamine B assay; assay type: functional; conditions: read-out: GI
[25] = tested on: Malme-3M; experiment: Antitumor activity against human MALME-3M cells assessed as cell growth inhibition at 10 uM incubated for 48 hrs by sulforhodamine B assay; assay type: functional; conditions: read-out: GI
[26] = tested on: PC-3; experiment: Antitumor activity against human PC-3 cells assessed as cell growth inhibition at 10 uM incubated for 48 hrs by sulforhodamine B assay; assay type: functional; conditions: read-out: GI
[27] = tested on: UO-31; experiment: Antitumor activity against human UO-31 cells assessed as cell growth inhibition at 10 uM incubated for 48 hrs by sulforhodamine B assay; assay type: functional; conditions: read-out: GI
[28] = tested on: SW-620; experiment: Antitumor activity against human SW620 cells assessed as cell growth inhibition at 10 uM incubated for 48 hrs by sulforhodamine B assay; conditions: SW-620, 48 h, read-out: GI
[29] = tested on: 786-0; experiment: Antitumor activity against human 786-0 cells assessed as cell growth inhibition at 10 uM incubated for 48 hrs by sulforhodamine B assay; assay type: functional; conditions: read-out: GI
[30] = tested on: SF-268; experiment: Antitumor activity against human SF268 cells assessed as cell growth inhibition at 10 uM incubated for 48 hrs by sulforhodamine B assay; assay type: functional; conditions: read-out: GI
[31] = tested on: SF-295; experiment: Antitumor activity against human SF295 cells assessed as cell growth inhibition at 10 uM incubated for 48 hrs by sulforhodamine B assay; assay type: functional; conditions: read-out: GI
[32] = tested on: HOP-92; experiment: Antitumor activity against human HOP92 cells assessed as cell growth inhibition at 10 uM incubated for 48 hrs by sulforhodamine B assay; assay type: functional; conditions: read-out: GI
[33] = tested on: HCC 2998; experiment: Antitumor activity against human HCC2998 cells assessed as cell growth inhibition at 10 uM incubated for 48 hrs by sulforhodamine B assay; assay type: functional; conditions: read-out: GI
[34] = tested on: SR; experiment: Antitumor activity against human SR cells assessed as cell growth inhibition at 10 uM incubated for 48 hrs by sulforhodamine B assay; assay type: functional; conditions: read-out: GI
[35] = tested on: HL-60(TB); experiment: Antitumor activity against human HL-60(TB) cells assessed as cell growth inhibition at 10 uM incubated for 48 hrs by sulforhodamine B assay; assay type: functional; conditions: read-out: GI
[36] = tested on: KM12; experiment: Antitumor activity against human KM12 cells assessed as cell growth inhibition at 10 uM incubated for 48 hrs by sulforhodamine B assay; assay type: functional; conditions: read-out: GI
[37] = tested on: MDA-MB-231; experiment: Antitumor activity against human MDA-MB-231/ATCC cells assessed as cell growth inhibition at 10 uM incubated for 48 hrs by sulforhodamine B assay; assay type: functional; conditions: read-out: GI
[38] = tested on: MCF7; experiment: Antitumor activity against human MCF7 cells assessed as cell growth inhibition at 10 uM incubated for 48 hrs by sulforhodamine B assay; assay type: functional; conditions: read-out: GI
[39] = tested on: OVCAR-4; experiment: Antitumor activity against human OVCAR-4 cells assessed as cell growth inhibition at 10 uM incubated for 48 hrs by sulforhodamine B assay; assay type: functional; conditions: read-out: GI
[40] = tested on: MDA-MB-435; experiment: Antitumor activity against human MDA-MB-435 cells assessed as cell growth inhibition at 10 uM incubated for 48 hrs by sulforhodamine B assay; assay type: functional; conditions: read-out: GI
[41] = tested on: OVCAR-8; experiment: Antitumor activity against human OVCAR-8 cells assessed as cell growth inhibition at 10 uM incubated for 48 hrs by sulforhodamine B assay; assay type: functional; conditions: read-out: GI
[42] = tested on: HCT-116; experiment: Antitumor activity against human HCT116 cells assessed as cell growth inhibition at 10 uM incubated for 48 hrs by sulforhodamine B assay; assay type: functional; conditions: read-out: GI
[43] = tested on: COLO 205; experiment: Antitumor activity against human COLO205 cells assessed as cell growth inhibition at 10 uM incubated for 48 hrs by sulforhodamine B assay; assay type: functional; conditions: read-out: GI
[44] = tested on: MDA-MB-468; experiment: Antitumor activity against human MDA-MB-468 cells assessed as cell growth inhibition at 10 uM incubated for 48 hrs by sulforhodamine B assay; assay type: functional; conditions: read-out: GI
[45] = tested on: A498; experiment: Antitumor activity against human A498 cells assessed as cell growth inhibition at 10 uM incubated for 48 hrs by sulforhodamine B assay; assay type: functional; conditions: read-out: GI
[46] = tested on: Hs-578T; experiment: Antitumor activity against human HS 578T cells assessed as cell growth inhibition at 10 uM incubated for 48 hrs by sulforhodamine B assay; assay type: functional; conditions: read-out: GI
[47] = tested on: K562; experiment: Antitumor activity against human K562 cells assessed as cell growth inhibition at 10 uM incubated for 48 hrs by sulforhodamine B assay; assay type: functional; conditions: read-out: GI
[48] = tested on: NCI-H522; experiment: Antitumor activity against human NCI-H522 cells assessed as cell growth inhibition at 10 uM incubated for 48 hrs by sulforhodamine B assay; assay type: functional; conditions: read-out: GI

For `c1cc2ccc3ccc(-c4nc5c6ccccc6c6ccccc6c5[nH]4)c4ccc(c1)c2c34`, the inhibition of growth at 10 µM [1] was < 10%, the inhibition of growth at 10 µM [2] was < 10% and the inhibition of growth at 10 µM [3] was 13.2%. It also gave an inhibition of growth at 10 µM [4] of 10.3%, an inhibition of growth at 10 µM [5] of 10.6% and an inhibition of growth at 10 µM [6] of 26.8%. For the same compound, the inhibition of growth at 10 µM [7] was < 10%, the inhibition of growth at 10 µM [8] was < 10% and the inhibition of growth at 10 µM [9] was < 10%. The inhibition of growth at 10 µM [10] was < 10%, the inhibition of growth at 10 µM [11] was < 10% and the inhibition of growth at 10 µM [12] was < 10%. For the same compound, the inhibition of growth at 10 µM [13] was 76.2%, the inhibition of growth at 10 µM [14] was < 10% and the inhibition of growth at 10 µM [15] was < 10%. The inhibition of growth at 10 µM [16] was < 10%, the inhibition of growth at 10 µM [17] was 13.7% and the inhibition of growth at 10 µM [18] was 10.3%. For the same compound, the inhibition of growth at 10 µM [19] was < 10%, the inhibition of growth at 10 µM [20] was < 10% and the inhibition of growth at 10 µM [21] was 38.4%. The inhibition of growth at 10 µM [22] was < 10%, the inhibition of growth at 10 µM [23] was < 10% and the inhibition of growth at 10 µM [24] was < 10%. For the same compound, the inhibition of growth at 10 µM [25] was < 10%, the inhibition of growth at 10 µM [26] was 21.2% and the inhibition of growth at 10 µM [27] was 37.2%. The inhibition of growth at 10 µM [28] was < 10%, the inhibition of growth at 10 µM [29] was < 10% and the inhibition of growth at 10 µM [30] was 14.6%. The inhibition of growth at 10 µM [31] was < 10%, the inhibition of growth at 10 µM [32] was 27.1% and the inhibition of growth at 10 µM [33] was < 10%. The inhibition of growth at 10 µM [34] was 23.7%, the inhibition of growth at 10 µM [35] was < 10% and the inhibition of growth at 10 µM [36] was 13.5%. The inhibition of growth at 10 µM [37] was 23.2%, the inhibition of growth at 10 µM [38] was 23.1% and the inhibition of growth at 10 µM [39] was < 10%. For the same compound, the inhibition of growth at 10 µM [40] was < 10%, the inhibition of growth at 10 µM [41] was < 10% and the inhibition of growth at 10 µM [42] was 16.6%. For the same compound, the inhibition of growth at 10 µM [43] was < 10%, the inhibition of growth at 10 µM [44] was 78.1% and the inhibition of growth at 10 µM [45] was 36.3%. The inhibition of growth at 10 µM [46] was < 10%, the inhibition of growth at 10 µM [47] was < 10% and the inhibition of growth at 10 µM [48] was 17.5%.
